Converted amounts (≈) assume the structure as drawn. “And” between values parts separate entries of the source, which are not always exact repeats. Identical values can stand only once.
Experiments:
Assay in all cases: ≥ marks a high value that may be exact or a test limit, other limits are often not marked, values filed in µg/mL are converted to µM
[1] = tested on: Bacillus subtilis ATCC 6633
[2] = tested on: Escherichia coli ATCC 10536
[3] = tested on: Escherichia coli DH5alpha
[4] = tested on: Staphylococcus aureus ATCC 9144
Aspergillus fumigatus = tested on: Aspergillus fumigatus
[5] = tested on: Enterococcus faecalis ATCC 29212
[6] = tested on: Streptococcus sanguinis ATCC 49295
[7] = tested on: Streptococcus gordonii ATCC 10558
[8] = tested on: Streptococcus mutans GS-5
[9] = tested on: Escherichia coli ATCC 25922
Botrytis cinerea = tested on: Botrytis cinerea
[10] = tested on: Staphylococcus aureus ATCC 12600
[11] = tested on: Escherichia coli ATCC 11775
[12] = tested on: Candida albicans ATCC 10231
[13] = tested on: Escherichia coli ATCC 2592
[14] = tested on: Candida albicans ATCC 36232
[15] = tested on: Pseudomonas aeruginosa ATCC 9027
[16] = tested on: Micrococcus luteus ATCC 9341
[17] = tested on: Xanthomonas campestris pv. Vesicatoria 2133-2
[18] = tested on: Erwinia amylovora PMV 6076
[19] = tested on: Pseudomonas syringae pv. syringae EPS 94
Pseudomonas aeruginosa = tested on: Pseudomonas aeruginosa
Salmonella typhimurium = tested on: Salmonella typhimurium
Streptococcus pyogenes = tested on: Streptococcus pyogenes
[20] = tested on: Staphylococcus epidermidis
Proteus vulgaris = tested on: Proteus vulgaris
Escherichia coli = tested on: Escherichia coli
Bacillus subtilis = tested on: Bacillus subtilis
Candida albicans = tested on: Candida albicans
[21] = tested on: Klebsiella pneumoniae ATCC 700603
[22] = tested on: Enterobacter cloacae ATCC 13047
[23] = tested on: Candida albicans ATCC 90028

Work on `CC[C@H](C)[C@H](NC(=O)[C@H](CCCN=C(N)N)NC(=O)[C@@H](NC(=O)[C@@H](NC(=O)[C@@H]1CCCN1C(=O)[C@@H](NC(=O)[C@@H](NC(=O)[C@@H](NC(=O)[C@@H]1CCCN1C(=O)CNC(=O)[C@H](Cc1ccc(O)cc1)NC(=O)[C@H](CCCCN)NC(=O)[C@H](CCCCN)NC(=O)[C@H](Cc1c[nH]c2ccccc12)NC(=O)[C@H](C)NC(=O)[C@H](CCCN=C(N)N)NC(=O)[C@H](CC(C)C)NC(=O)[C@H](C)NC(=O)[C@H](CCCCN)NC(=O)[C@H](CCCN=C(N)N)NC(=O)CNC(=O)[C@H](CC(C)C)NC(=O)[C@H](CO)NC(=O)[C@H](CCCN=C(N)N)NC(=O)[C@H](CC(C)C)NC(=O)CNC(=O)CN)[C@@H](C)CC)[C@@H](C)CC)C(C)C)[C@@H](C)CC)[C@@H](C)CC)C(N)=O` [GGLRSLGRKALRAWKKYGPIIVPIIRI] yielded an MIC [1] of 1.5 µM (≈ 4.55 µg/mL), an MIC [2] of 2.3 µM (≈ 6.97 µg/mL) and an MIC [3] of 2.6 µM (≈ 7.88 µg/mL). For the same compound, the MIC [4] was 3.2 µM (≈ 9.7 µg/mL).

`CC[C@H](C)[C@H](NC(=O)[C@@H](NC(=O)[C@@H]1CCCN1C(=O)[C@H](CO)NC(=O)[C@H](CC(C)C)NC(=O)[C@H](CCCCN)NC(=O)[C@H](CCCCN)NC(=O)[C@H](Cc1ccccc1)NC(=O)[C@H](CC(C)C)NC(=O)[C@H](CCCCN)NC(=O)[C@H](CCCCN)NC(=O)[C@H](C)NC(=O)[C@H](CCCCN)NC(=O)[C@H](CCCCN)NC(=O)[C@H](CCCN=C(N)N)NC(=O)[C@H](Cc1ccccc1)NC(=O)[C@H](CCCN=C(N)N)NC(=O)[C@H](CCCCN)NC(=O)[C@H](C)NC(=O)[C@H](CCCN=C(N)N)NC(=O)CN)C(C)C)C(=O)N1CCC[C@H]1C(=O)N[C@@H](CC(C)C)C(=O)N[C@@H](CC(C)C)C(=O)N[C@@H](Cc1cnc[nH]1)C(=O)N[C@@H](CC(C)C)C(N)=O` [GRAKRFRKKAKKLFKKLSPVIPLLHL] was tested, and the MIC [2] was 2.9 µM and 7.3 µM, the MIC [3] was 2.9 µM (≈ 8.91 µg/mL) and the MIC [4] was 2.7 µM (≈ 8.3 µg/mL).

In the case of `CC[C@H](C)[C@H](NC(=O)[C@@H](NC(=O)[C@@H]1CCCN1C(=O)[C@H](CO)NC(=O)[C@H](CC(C)C)NC(=O)[C@H](CCCCN)NC(=O)[C@H](CCCCN)NC(=O)[C@H](Cc1ccccc1)NC(=O)[C@H](CC(C)C)NC(=O)[C@H](CCCCN)NC(=O)[C@H](CCCCN)NC(=O)[C@H](C)NC(=O)[C@H](CCCCN)NC(=O)[C@H](CCCCN)NC(=O)[C@H](CCCN=C(N)N)NC(=O)[C@H](Cc1ccccc1)NC(=O)[C@H](CCCN=C(N)N)NC(=O)[C@H](CCCCN)NC(=O)[C@H](Cc1ccccc1)NC(=O)[C@H](CCCN=C(N)N)NC(=O)CN)C(C)C)C(=O)N1CCC[C@H]1C(=O)N[C@@H](CC(C)C)C(=O)N[C@@H](CC(C)C)C(=O)N[C@@H](Cc1cnc[nH]1)C(=O)N[C@@H](CC(C)C)C(N)=O` [GRFKRFRKKAKKLFKKLSPVIPLLHL], the MIC [2] is reported as 3.2 µM and 7.4 µM, the MIC [3] is reported as 2.9 µM (≈ 9.13 µg/mL) and the MIC [4] is reported as 2.8 µM (≈ 8.82 µg/mL).

`CC(C)[C@H](NC(=O)[C@H](CO)NC(=O)[C@H](CCCN=C(N)N)NC(=O)[C@H](CCCN=C(N)N)NC(=O)[C@H](CCCN=C(N)N)NC(=O)[C@H](CCCN=C(N)N)NC(=O)CN)C(=O)N[C@@H](CCC(N)=O)C(=O)N[C@@H](Cc1c[nH]c2ccccc12)C(=O)N[C@@H](CS)C(=O)N[C@@H](C)C(=O)O` [GRRRRSVQWCA] was tested, and the MIC (Aspergillus fumigatus) was 5 µM (≈ 6.87 µg/mL), the MIC [5] was 72.8 µM (≈ 100 µg/mL) and the MIC [6] was ≥ 101 µM. For the same compound, the MIC [7] was ≥ 46.6 µM, the MIC [8] was ≥ 34.9 µM and the MIC [9] was 18.2 µM (≈ 25 µg/mL).

For `CC[C@H](C)[C@H](N)C(=O)N[C@@H](CC(N)=O)C(=O)N1CCC[C@H]1C(=O)N[C@@H](CCCCN)C(=O)N[C@@H](CO)C(=O)N[C@H](C(=O)N[C@@H](CCC(N)=O)C(=O)N[C@@H](CO)C(=O)N[C@@H](CC(C)C)C(=O)N[C@@H](CC(C)C)C(N)=O)C(C)C` [INPKSVQSLL], the MIC (Botrytis cinerea) was ≥ 200 µM, the MIC [10] was ≥ 200 µM and the MIC [11] was ≥ 200 µM. For the same compound, the MIC [12] was > 200 µM.

With `CC(C)C[C@H](NC(=O)[C@H](CS)NC(=O)[C@H](Cc1cnc[nH]1)NC(=O)[C@H](C)NC(=O)[C@H](C)NC(=O)[C@H](CS)NC(=O)[C@H](C)NC(=O)[C@H](C)NC(=O)[C@@H](N)CCCCN)C(=O)N[C@@H](Cc1c[nH]c2ccccc12)C(=O)N[C@@H](CCCN=C(N)N)C(N)=O` [KAACAAHCLWR] the MIC [13] was ≥ 163 µM, the MIC [14] was ≥ 163 µM and the MIC [15] was > 163 µM. The MIC [16] was ≥ 163 µM.

Compound `CC[C@H](C)[C@H](NC(=O)[C@H](CCCCN)NC(=O)[C@H](CCCCN)NC(=O)[C@H](Cc1ccccc1)NC(=O)[C@H](CC(C)C)NC(=O)[C@H](CCCCN)NC(=O)[C@H](CCCCN)NC(=O)[C@H](CC(C)C)NC(=O)[C@H](Cc1ccc(O)cc1)NC(=O)[C@H](CCCCN)NC(=O)[C@H](CC(C)C)NC(=O)[C@@H](NC(=O)[C@H](CCCCN)NC(=O)[C@H](CCCCN)NC(=O)[C@H](Cc1ccccc1)NC(=O)[C@H](CC(C)C)NC(=O)[C@H](CCCCN)NC(=O)[C@@H](N)CCCCN)[C@@H](C)CC)C(=O)N[C@@H](CC(C)C)C(=O)N[C@@H](CCCCN)C(=O)N[C@@H](Cc1ccc(O)cc1)C(=O)N[C@@H](CC(C)C)C(=O)N[C@@H](CCCCN)C(=O)N[C@@H](CC(=O)O)C(=O)N[C@@H](CCC(=O)O)C(=O)N[C@@H](CC(C)C)C(=O)O` [KKLFKKILKYLKKLFKKILKYLKDEL] has an MIC [17] of 14.1 µM (≈ 46.8 µg/mL), an MIC [18] of 14.1 µM (≈ 46.8 µg/mL) and an MIC [19] of 14.1 µM (≈ 46.8 µg/mL).

In the case of `CC(C)C[C@H](NC(=O)[C@H](CCCN=C(N)N)NC(=O)[C@@H]1CCCN1C(=O)[C@H](Cc1cnc[nH]1)NC(=O)[C@@H]1CCCN1C(=O)[C@@H]1CCCN1C(=O)[C@H](CCCN=C(N)N)NC(=O)[C@@H]1CCCN1C(=O)[C@@H]1CCCN1C(=O)[C@H](Cc1cnc[nH]1)NC(=O)[C@@H]1CCCN1C(=O)[C@@H]1CCCN1C(=O)[C@H](CCCN=C(N)N)NC(=O)[C@@H]1CCCN1C(=O)[C@@H]1CCCN1C(=O)[C@H](Cc1cnc[nH]1)NC(=O)[C@@H]1CCCN1C(=O)[C@@H]1CCCN1C(=O)[C@H](CCCN=C(N)N)NC(=O)[C@@H]1CCCN1)C(=O)O` [PRPPHPPRPPHPPRPPHPRL], the MIC (Pseudomonas aeruginosa) is reported as 16 µM (≈ 37.3 µg/mL), the MIC (Salmonella typhimurium) is reported as 0.5 µM (≈ 1.17 µg/mL) and the MIC (Streptococcus pyogenes) is reported as ≥ 64 µM. The MIC [20] was ≥ 64 µM, the MIC (Proteus vulgaris) was 2 µM (≈ 4.67 µg/mL) and the MIC (Escherichia coli) was 0.5 µM (≈ 1.17 µg/mL). For the same compound, the MIC (Bacillus subtilis) was ≥ 64 µM.

In the case of `CC(C)C[C@H](NC(=O)[C@H](Cc1ccccc1)NC(=O)[C@@H]1CCCN1C(=O)[C@H](Cc1c[nH]c2ccccc12)NC(=O)[C@H](Cc1c[nH]c2ccccc12)NC(=O)[C@H](Cc1c[nH]c2ccccc12)NC(=O)[C@@H]1CCCN1C(=O)[C@H](Cc1ccccc1)NC(=O)[C@@H](N)CCCN=C(N)N)C(=O)N[C@@H](CCCN=C(N)N)C(=O)O` [RFPWWWPFLR], the MIC (Aspergillus fumigatus) is reported as ≥ 335 µM and the MIC (Candida albicans) is reported as > 671 µM.

`CC[C@H](C)[C@H](NC(=O)[C@H](C)NC(=O)[C@H](CCCCN)NC(=O)[C@@H](NC(=O)[C@@H](NC(=O)[C@@H](N)C(C)C)[C@@H](C)CC)C(C)C)C(=O)N[C@@H](C)C(=O)N[C@H](C(=O)N[C@@H](CC(C)C)C(=O)N[C@@H](C)C(=O)N[C@@H](CO)C(=O)N[C@@H](CCCCN)C(=O)N[C@@H](CC(C)C)C(=O)N[C@@H](CC(C)C)C(=O)O)[C@@H](C)O` [VIVKAIATLASKLL] was tested, and the MIC [21] was 55.6 µM (≈ 80 µg/mL), the MIC [22] was ≥ 55.6 µM and the MIC [23] was 27.8 µM (≈ 40 µg/mL).

— DBAASP
